Paper PMC6917776, “Discovery of a chemical probe for PRDM9” (Nature Communications, 2019)
Where two headings read alike, the source gives them in different places.

Test: CelltiterGlo viability cell assay
Format: cell-based
Conditions: human
Outline: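 Cells seeded at line-specific densities (e.g. 10000/well for MDA-MB-436) were treated with compound at 0.01–30 μM, and viability was read by CellTiter-Glo luminescence on day 3 or 6. Data are normalized to DMSO control, n=3 biological replicates.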

[1] = CAL851 breast cancer cells, CAL851, 3 day, read-out: viability Average
[2] = CAL851 breast cancer cells, CAL851, 3 day, read-out: viability Replicate 1
[3] = CAL851 breast cancer cells, CAL851, 3 day, read-out: viability Replicate 2
[4] = CAL851 breast cancer cells, CAL851, 3 day, read-out: viability Replicate 3
[5] = CAL851 breast cancer cells, CAL851, 6 day, read-out: viability Average
[6] = CAL851 breast cancer cells, CAL851, 6 day, read-out: viability Replicate 1
[7] = CAL851 breast cancer cells, CAL851, 6 day, read-out: viability Replicate 2
[8] = CAL851 breast cancer cells, CAL851, 6 day, read-out: viability Replicate 3
[9] = CAL851 cells, CAL851, 3 day, read-out: viability Replicate 1
[10] = CAL851 cells, CAL851, 3 day, read-out: viability Replicate 2
[11] = HCC1143 breast cancer cells, HCC1143, 3 day, read-out: viability Average
[12] = HCC1143 breast cancer cells, HCC1143, 3 day, read-out: viability Replicate 1
[13] = HCC1143 breast cancer cells, HCC1143, 3 day, read-out: viability Replicate 2
[14] = HCC1143 breast cancer cells, HCC1143, 3 day, read-out: viability Replicate 3
[15] = HCC1143 breast cancer cells, HCC1143, 6 day, read-out: viability Average
[16] = HCC1143 breast cancer cells, HCC1143, 6 day, read-out: viability Replicate 1
[17] = HCC1143 breast cancer cells, HCC1143, 6 day, read-out: viability Replicate 2
[18] = HCC1143 breast cancer cells, HCC1143, 6 day, read-out: viability Replicate 3
[19] = HCC1806 breast cancer cells, HCC1806, 3 day, read-out: viability Average
[20] = HCC1806 breast cancer cells, HCC1806, 3 day, read-out: viability Replicate 1
[21] = HCC1806 breast cancer cells, HCC1806, 3 day, read-out: viability Replicate 2
[22] = HCC1806 breast cancer cells, HCC1806, 3 day, read-out: viability Replicate 3
[23] = HCC1806 breast cancer cells, HCC1806, 6 day, read-out: viability Average
[24] = HCC1806 breast cancer cells, HCC1806, 6 day, read-out: viability Replicate 1
[25] = HCC1806 breast cancer cells, HCC1806, 6 day, read-out: viability Replicate 2
[26] = HCC1806 breast cancer cells, HCC1806, 6 day, read-out: viability Replicate 3
[27] = HCC1806 cells, HCC1806, 3 day, read-out: viability Average
[28] = HCC1806 cells, HCC1806, 3 day, read-out: viability Replicate 1
[29] = HCC1806 cells, HCC1806, 3 day, read-out: viability Replicate 2
[30] = HCC1806 cells, HCC1806, 3 day, read-out: viability Replicate 3

## COc1cc(OC)cc(-c2noc(N3CCN(C)C4(CCN(c5ccnc(C)c5)CC4)C3)n2)c1 [MRK-740]
[1]
  viability at 3 day, 0.01 µM: 95.7%
  viability at 3 day, 0.03 µM: 94.4%
  viability at 3 day, 0.3 µM: 98.9%
  viability at 3 day, 1 µM: 98%
  viability at 3 day, 3 µM: 88%
  viability at 3 day, 9.5 µM: 72%
  viability at 3 day, 30 µM: 21.2%
[2]
  viability at 3 day, 0.01 µM: 91.6%
  viability at 3 day, 0.03 µM: 93.2%
  viability at 3 day, 1 µM: 88.2%
  viability at 3 day, 3 µM: 88.9%
  viability at 3 day, 9.5 µM: 69.7%
  viability at 3 day, 30 µM: 18.4%
[3]
  viability at 3 day, 0.01 µM: 94.6%
  viability at 3 day, 0.03 µM: 92.2%
  viability at 3 day, 1 µM: 93.7%
  viability at 3 day, 3 µM: 78.6%
  viability at 3 day, 9.5 µM: 68.9%
  viability at 3 day, 30 µM: 24.5%
[4]
  viability at 3 day, 0.01 µM: 101%
  viability at 3 day, 0.03 µM: 97.9%
  viability at 3 day, 0.3 µM: 104%
  viability at 3 day, 1 µM: 112%
  viability at 3 day, 3 µM: 96.5%
  viability at 3 day, 9.5 µM: 77.4%
  viability at 3 day, 30 µM: 20.7%
[5]
  viability at 6 day, 0.01 µM: 113%
  viability at 6 day, 0.03 µM: 114%
  viability at 6 day, 0.1 µM: 129%
  viability at 6 day, 0.3 µM: 118%
  viability at 6 day, 1 µM: 117%
  viability at 6 day, 3 µM: 100%
  viability at 6 day, 9.5 µM: 73.1%
  viability at 6 day, 30 µM: 14.9%
[6]
  viability at 6 day, 0.01 µM: 109%
  viability at 6 day, 0.03 µM: 103%
  viability at 6 day, 0.1 µM: 116%
  viability at 6 day, 0.3 µM: 121%
  viability at 6 day, 1 µM: 109%
  viability at 6 day, 3 µM: 93.2%
  viability at 6 day, 9.5 µM: 59.9%
  viability at 6 day, 30 µM: 22.8%
[7]
  viability at 6 day, 0.01 µM: 118%
  viability at 6 day, 0.03 µM: 114%
  viability at 6 day, 0.1 µM: 126%
  viability at 6 day, 0.3 µM: 117%
  viability at 6 day, 1 µM: 108%
  viability at 6 day, 3 µM: 104%
  viability at 6 day, 9.5 µM: 75.6%
  viability at 6 day, 30 µM: 11.9%
[8]
  viability at 6 day, 0.01 µM: 113%
  viability at 6 day, 0.03 µM: 126%
  viability at 6 day, 0.1 µM: 145%
  viability at 6 day, 0.3 µM: 115%
  viability at 6 day, 1 µM: 134%
  viability at 6 day, 3 µM: 104%
  viability at 6 day, 9.5 µM: 83.9%
  viability at 6 day, 30 µM: 10%
CAL851 cells, CAL851, 3 day, read-out: viability Average
  viability at 3 day, 0.1 µM: 99.9%
[9]
  viability at 3 day, 0.1 µM: 97.5%
  viability at 3 day, 0.3 µM: 94.7%
[10]
  viability at 3 day, 0.1 µM: 91.8%
  viability at 3 day, 0.3 µM: 97.8%
CAL851 cells, CAL851, 3 day, read-out: viability Replicate 3
  viability at 3 day, 0.1 µM: 111%
[11]
  viability at 3 day, 0.01 µM: 96.2%
  viability at 3 day, 0.03 µM: 94.8%
  viability at 3 day, 0.3 µM: 98.1%
  viability at 3 day, 1 µM: 97.8%
  viability at 3 day, 3 µM: 92.9%
  viability at 3 day, 9.5 µM: 71.7%
  viability at 3 day, 30 µM: 25.7%
[12]
  viability at 3 day, 0.01 µM: 100%
  viability at 3 day, 0.03 µM: 92.9%
  viability at 3 day, 0.3 µM: 99.7%
  viability at 3 day, 1 µM: 101%
  viability at 3 day, 3 µM: 94.7%
  viability at 3 day, 9.5 µM: 73.8%
  viability at 3 day, 30 µM: 27.4%
[13]
  viability at 3 day, 0.01 µM: 94.8%
  viability at 3 day, 0.03 µM: 94.1%
  viability at 3 day, 0.3 µM: 97.7%
  viability at 3 day, 1 µM: 93.9%
  viability at 3 day, 3 µM: 91%
  viability at 3 day, 9.5 µM: 69.4%
  viability at 3 day, 30 µM: 27.1%
[14]
  viability at 3 day, 0.01 µM: 93.8%
  viability at 3 day, 0.03 µM: 97.3%
  viability at 3 day, 0.3 µM: 96.9%
  viability at 3 day, 1 µM: 98.8%
  viability at 3 day, 3 µM: 93%
  viability at 3 day, 9.5 µM: 72%
  viability at 3 day, 30 µM: 22.6%
[15]
  viability at 6 day, 0.03 µM: 101%
  viability at 6 day, 0.1 µM: 105%
  viability at 6 day, 0.3 µM: 110%
  viability at 6 day, 1 µM: 112%
  viability at 6 day, 3 µM: 108%
  viability at 6 day, 9.5 µM: 79.4%
  viability at 6 day, 30 µM: 18.9%
[16]
  viability at 6 day, 0.03 µM: 96.8%
  viability at 6 day, 0.1 µM: 103%
  viability at 6 day, 0.3 µM: 109%
  viability at 6 day, 1 µM: 114%
  viability at 6 day, 3 µM: 106%
  viability at 6 day, 9.5 µM: 79.5%
  viability at 6 day, 30 µM: 20.9%
[17]
  viability at 6 day, 0.03 µM: 101%
  viability at 6 day, 0.1 µM: 102%
  viability at 6 day, 0.3 µM: 111%
  viability at 6 day, 1 µM: 108%
  viability at 6 day, 3 µM: 109%
  viability at 6 day, 9.5 µM: 78.6%
  viability at 6 day, 30 µM: 18.4%
[18]
  viability at 6 day, 0.03 µM: 104%
  viability at 6 day, 0.1 µM: 111%
  viability at 6 day, 0.3 µM: 111%
  viability at 6 day, 1 µM: 113%
  viability at 6 day, 3 µM: 110%
  viability at 6 day, 9.5 µM: 80.2%
  viability at 6 day, 30 µM: 17.3%
HCC1143 cells, HCC1143, 3 day, read-out: viability Average
  viability at 3 day, 0.1 µM: 93.6%
HCC1143 cells, HCC1143, 3 day, read-out: viability Replicate 1
  viability at 3 day, 0.1 µM: 95.6%
HCC1143 cells, HCC1143, 3 day, read-out: viability Replicate 2
  viability at 3 day, 0.1 µM: 90.7%
HCC1143 cells, HCC1143, 3 day, read-out: viability Replicate 3
  viability at 3 day, 0.1 µM: 94.6%
[19]
  viability at 3 day, 0.01 µM: 107%
  viability at 3 day, 0.03 µM: 102%
  viability at 3 day, 1 µM: 103%
  viability at 3 day, 3 µM: 89.8%
  viability at 3 day, 9.5 µM: 37.6%
  viability at 3 day, 30 µM: 11.6%
[20]
  viability at 3 day, 0.01 µM: 103%
  viability at 3 day, 0.03 µM: 99.9%
  viability at 3 day, 1 µM: 104%
  viability at 3 day, 3 µM: 92.2%
  viability at 3 day, 9.5 µM: 40.7%
  viability at 3 day, 30 µM: 13.2%
[21]
  viability at 3 day, 0.01 µM: 110%
  viability at 3 day, 0.03 µM: 101%
  viability at 3 day, 1 µM: 111%
  viability at 3 day, 3 µM: 107%
  viability at 3 day, 9.5 µM: 51.7%
  viability at 3 day, 30 µM: 14.9%
[22]
  viability at 3 day, 0.01 µM: 107%
  viability at 3 day, 0.03 µM: 104%
  viability at 3 day, 1 µM: 94.5%
  viability at 3 day, 3 µM: 70.5%
  viability at 3 day, 9.5 µM: 20.5%
  viability at 3 day, 30 µM: 6.61%
[23]
  viability at 6 day, 0.01 µM: 102%
  viability at 6 day, 0.03 µM: 106%
  viability at 6 day, 0.1 µM: 106%
  viability at 6 day, 0.3 µM: 109%
  viability at 6 day, 1 µM: 103%
  viability at 6 day, 3 µM: 63.9%
  viability at 6 day, 9.5 µM: 24.9%
  viability at 6 day, 30 µM: 4.91%
[24]
  viability at 6 day, 0.01 µM: 107%
  viability at 6 day, 0.03 µM: 111%
  viability at 6 day, 0.1 µM: 107%
  viability at 6 day, 0.3 µM: 113%
  viability at 6 day, 1 µM: 102%
  viability at 6 day, 3 µM: 63.2%
  viability at 6 day, 9.5 µM: 23.5%
  viability at 6 day, 30 µM: 5.1%
[25]
  viability at 6 day, 0.01 µM: 100%
  viability at 6 day, 0.03 µM: 101%
  viability at 6 day, 0.1 µM: 106%
  viability at 6 day, 0.3 µM: 106%
  viability at 6 day, 1 µM: 101%
  viability at 6 day, 3 µM: 58.6%
  viability at 6 day, 9.5 µM: 25%
  viability at 6 day, 30 µM: 5.11%
[26]
  viability at 6 day, 0.01 µM: 99.6%
  viability at 6 day, 0.03 µM: 106%
  viability at 6 day, 0.1 µM: 106%
  viability at 6 day, 0.3 µM: 108%
  viability at 6 day, 1 µM: 107%
  viability at 6 day, 3 µM: 69.8%
  viability at 6 day, 9.5 µM: 26.3%
  viability at 6 day, 30 µM: 4.53%
[27]
  viability at 3 day, 0.1 µM: 110%
  viability at 3 day, 0.3 µM: 106%
[28]
  viability at 3 day, 0.1 µM: 122%
  viability at 3 day, 0.3 µM: 109%
[29]
  viability at 3 day, 0.1 µM: 110%
  viability at 3 day, 0.3 µM: 108%
[30]
  viability at 3 day, 0.1 µM: 97.6%
  viability at 3 day, 0.3 µM: 101%
MDA-MB-436 breast cancer cells, MDA MB436, 3 day, read-out: viability Average
  viability at 3 day, 0.01 µM: 104%
MDA-MB-436 breast cancer cells, MDA MB436, 3 day, read-out: viability Replicate 1
  viability at 3 day, 0.01 µM: 123%
